Measured values as given in patent US9274101B2 (BIOLOG, Inc., priority 2001, dated 2016).

Legend:
HL-60 cells [1] = assay: HL-60 responses to selected compounds at a range of concentrations; format: cell-based, human; details: for activity at 30 µM / activity at 100 µM / activity at 330 µM / activity at 1000 µM / activity at 3300 µM / activity at 10000 µM / activity at 15000 µM / activity at 20000 µM: Homo sapiens, HL-60, read-out: HL-60 Cell Responses to Selected Compounds from PM1 and PM2
Protocol: In this Example, methods for testing unattached cells for their ability to use various concentrations of selected carbon sources are described. The carbon sources used in this Example were identified by the methods disclosed in Example 27. Similarly, HL-60 cells were cultured as described in Example 27.
After washing, HL-60 cells were resuspended in DME-R. An aliquot of the cell suspension was counted by trypan blue exclusion and the cell density was adjusted to 6.67×10^5/mL. Fifty μL of DME-R were added to each well of the appropriate number of half area, 96-well plates, followed by 23 μL of the appropriate dilution of each test energy source. Stocks of 133 mM of each test chemical were prepared in tissue culture grade water, sterile filtered, and dilutions were prepared in a master plate so that, upon dilution in a total volume of 150 μL, the final concentrations would be 0.033 to 20 mM. Negative control wells received 23 μL of tissue culture grade water. The cells were plated at a volume of 75 μL/well, giving a final cell density of 5×10^4/well. For each plate containing energy sources and cells, a second, control plate containing only energy sources was prepared. Plates were incubated at 5% CO2, 90-100% humidity, and 37° C. for 24 hours prior to addition of the MTS/MPMS colorometric reagent (7.5 μL/well). The color formed in each well after an additional 24 hour incubation period, was measured on a plate reader at 490 nm with a reference wavelength of 650 nm. OD values from the control plate were subtracted from the OD values obtained with cells prior to normalizing the data to % negative control (cells without added energy source).

HL-60 cells [2] = assay: Effect of 1 mM chloramphenicol on HL-60 energy utilization; format: cell-based, human; details: negative control without chloramphenicol
Protocol: In this Example, methods for testing antimicrobial-induced modulation in growth of a cell are described. The antimicrobial selected for this Example is chloramphenicol. However, this application is not intended to be limited to the use of chloramphenicol, translation inhibitors or even antibiotics. HL-60 cells were cultured as described in Example 27.
After washing, HL-60 cells were resuspended in DME-R. An aliquot of the cell suspension was counted by trypan blue exclusion and the cell density was adjusted to 6.67×10^5[…]. Fifty μL of DME-R containing 3 mM chloramphenicol were added to each well of the appropriate number of half area, 96-well plates, followed by 25 μL of the appropriate dilution of each test energy source. Stocks of 133 mM of each test chemical were prepared in tissue culture grade water, sterile filtered, and dilutions were prepared in a master plate so that, upon dilution in a total volume of 150 μL, the final concentrations would be 0.033 to 20 mM. Negative control wells received 25 μL of tissue culture grade water. The cells were plated at a volume of 75 μL/well, giving a final cell density of 5×10^4/well. For each plate containing energy sources and cells, a second, control plate containing only energy sources was prepared. Plates were incubated at 5% CO2, 90-100% humidity, and 37° C. for 24 hours prior to addition of the MTS/MPMS colorimetric reagent (7.5 μL/well). The color formed in each well 24 hours after addition of the colorimetric reagent, was measured with a plate reader at 490 nm with a reference wavelength of 650 nm. OD values from the control plate were subtracted from the OD values obtained with cells prior to normalizing the data to % negative control.
Data shown in Table 25 are expressed as percent negative control without chloramphenicol. […] Chloramphenicol clearly has a different effect on the cells than citrate shown in Example 33.

[3] = energy source 0.03 mM with 1 mM chloramphenicol
[4] = energy source 0.10 mM with 1 mM chloramphenicol
[5] = energy source 0.33 mM with 1 mM chloramphenicol
[6] = energy source 1.00 mM with 1 mM chloramphenicol
[7] = energy source 3.3 mM with 1 mM chloramphenicol
[8] = energy source 10 mM with 1 mM chloramphenicol
[9] = energy source 15 mM with 1 mM chloramphenicol
[10] = energy source 20 mM with 1 mM chloramphenicol

| SMILES | activity at 30 µM (HL-60 cells [1]; Conc. 0.03 mM) | activity at 100 µM (HL-60 cells [1]; Conc. 0.10 mM) | activity at 330 µM (HL-60 cells [1]; Conc. 0.33 mM) | activity at 1000 µM (HL-60 cells [1]; Conc. 1.00 mM) | activity at 3300 µM (HL-60 cells [1]; Conc. 3.3 mM) | activity at 10000 µM (HL-60 cells [1]; Conc. 10 mM) | activity at 15000 µM (HL-60 cells [1]; Conc. 15 mM) | activity at 20000 µM (HL-60 cells [1]; Conc. 20 mM) | Effect of 1 mM chloramphenicol on HL-60 Energy Utilization (HL-60 cells [2]; [3]) | Effect of 1 mM chloramphenicol on HL-60 Energy Utilization (HL-60 cells [2]; [4]) | Effect of 1 mM chloramphenicol on HL-60 Energy Utilization (HL-60 cells [2]; [5]) | Effect of 1 mM chloramphenicol on HL-60 Energy Utilization (HL-60 cells [2]; [6]) | Effect of 1 mM chloramphenicol on HL-60 Energy Utilization (HL-60 cells [2]; [7]) | Effect of 1 mM chloramphenicol on HL-60 Energy Utilization (HL-60 cells [2]; [8]) | Effect of 1 mM chloramphenicol on HL-60 Energy Utilization (HL-60 cells [2]; [9]) | Effect of 1 mM chloramphenicol on HL-60 Energy Utilization (HL-60 cells [2]; [10]) | further results |
| --- | --- | --- | --- | --- | --- | --- | --- | --- | --- | --- | --- | --- | --- | --- | --- | --- | --- |
| O=C1O[C@@H]([C@H](O)CO)[C@H](O)[C@H]1O [D-gal acid g-lactone] | – | – | – | – | – | – | – | – | – | – | – | – | – | – | – | – | HL-60 Cell Responses to Selected Compounds from PM1 and PM2 (HL-60 cells [1]; Conc. 0.03 mM): 128.3 % of negative control; HL-60 Cell Responses to Selected Compounds from PM1 and PM2 (HL-60 cells [1]; Conc. 0.10 mM): 128.7 % of negative control; HL-60 Cell Responses to Selected Compounds from PM1 and PM2 (HL-60 cells [1]; Conc. 0.33 mM): 129.3 % of negative control; HL-60 Cell Responses to Selected Compounds from PM1 and PM2 (HL-60 cells [1]; Conc. 1.00 mM): 141.4 % of negative control; HL-60 Cell Responses to Selected Compounds from PM1 and PM2 (HL-60 cells [1]; Conc. 3.3 mM): 142.2 % of negative control; HL-60 Cell Responses to Selected Compounds from PM1 and PM2 (HL-60 cells [1]; Conc. 10 mM): 127.1 % of negative control; HL-60 Cell Responses to Selected Compounds from PM1 and PM2 (HL-60 cells [1]; Conc. 15 mM): 122.2 % of negative control; HL-60 Cell Responses to Selected Compounds from PM1 and PM2 (HL-60 cells [1]; Conc. 20 mM): 93.9 % of negative control |
| O=C[C@H](O)[C@@H](O)[C@@H](O)[C@H](O)C(=O)O [D-galacturonic acid] | 124% | 125% | 126% | 138% | 140% | 122% | 101% | 25% | 0.2 % of negative control | −2.7 % of negative control | −4.6 % of negative control | −4.6 % of negative control | 7.9 % of negative control | 8.4 % of negative control | 5.0 % of negative control | −12.8 % of negative control | – |
| NC(=O)C[C@H](N)C(=O)O [L-asparagine] | 134% | 149% | 138% | 149% | 135% | 137% | 128% | 118% | 6.3 % of negative control | 17.4 % of negative control | 7.6 % of negative control | 3.1 % of negative control | 12.1 % of negative control | 22.9 % of negative control | 20.9 % of negative control | 30.2 % of negative control | response in words (HL-60 cells [1]; 0.033 to 20 mM): strongly utilized, even at very low concentrations |
